Columns and labels:
Δ24-reductase = biological target: T1, Δ24-reductase (Homo sapiens, UniProt Q15392); assay: Δ24-reductase assay (conversion of lanosterol to dihydrolanosterol in the presence of miconazole); format: cell-based; conditions: HepG2 cells; conversion of lanosterol to dihydrolanosterol with added miconazole
T1 construct: endogenous in cells; host or cells: HepG2
T1 sequence (Q15392 23-516): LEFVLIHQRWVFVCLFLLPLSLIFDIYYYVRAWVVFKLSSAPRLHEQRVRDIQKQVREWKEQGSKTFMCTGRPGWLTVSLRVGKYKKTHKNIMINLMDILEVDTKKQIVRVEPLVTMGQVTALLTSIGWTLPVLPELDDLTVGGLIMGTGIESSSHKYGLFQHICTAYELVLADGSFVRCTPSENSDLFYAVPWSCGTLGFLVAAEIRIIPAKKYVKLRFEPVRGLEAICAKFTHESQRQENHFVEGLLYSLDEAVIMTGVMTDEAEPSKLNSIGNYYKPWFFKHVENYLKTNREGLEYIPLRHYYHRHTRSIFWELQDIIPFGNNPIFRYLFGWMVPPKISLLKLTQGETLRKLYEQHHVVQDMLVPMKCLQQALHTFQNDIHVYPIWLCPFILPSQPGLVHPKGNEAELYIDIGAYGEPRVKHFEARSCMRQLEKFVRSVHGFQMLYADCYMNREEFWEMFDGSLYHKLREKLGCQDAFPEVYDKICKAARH
Procedure: HepG2 cells were incubated for 12 h with 10 µM simvastatin (a kind gift from M. Stapff (MSD, Germany)) to deplete cholesterol precursors. Thereafter, the medium was changed to one containing 10 µM simvastatin, 10 µM miconazole (an inhibitor of 14α-demethylation) and 6 µg/dish lanosterol. After 12 h incubation, neutral sterols were extracted as described above, and the samples were monitored for lanosterol (m/z 498 (M^+) and m/z 393 (M-TMSOH-CH3)) and dihydrolanosterol (m/z 500 (M^+) and m/z 395 (M-TMSOH-CH3)) by GC/MS. Dihydrolanosterol was quantified by comparing the ratio of SIM abundances at m/z 395 and 370 (epicoprostanol) against a standard curve constructed from SIM results on mixtures of authentic dihydrolanosterol and epicoprostanol. Desmosterol was quantified analogously by SIM.

rat testis = assay: Levels of C29-sterols in rat testis slices, GC/MS (SIM); format: cell-based, Sprague-Dawley rats; conditions: 9 h, n=3, ± SD
Procedure: Unless specified otherwise, potent inhibitors, drugs, chemicals, and cell culture supplies were purchased from Sigma. T-MAS and FF-MAS were synthesized as reported recently (5) and used as reference compounds. 1-^13C-acetate was obtained from Cambridge Isotope Laboratories. Rat testes were obtained from Sprague-Dawley rats (weight <50g).
(§1) Human hepatoma HepG2 cells were cultured to confluency in 60-mm dishes in phenol-red-free Dulbecco's modified Eagle's medium (DMEM) containing Pen-Strep (100 µg/ml), glucose (10 mM), sodium bicarbonate (45 mM) and glutamine (4 mM) supplemented with 10% fetal calf serum as described previously (24). At the beginning of the experiment the medium was changed to serum-free DMEM supplemented with 10% lipid-free "controlled process serum replacement" (CPSR-1). Compounds were added from ethanolic stock solutions to produce final ethanol concentrations of 0.1-0.3% v/v. Controls received the same amount of ethanol. Aminotriazole was added in an aqueous solution. Slices of rat testis (25 µm; 25-50 mg wet weight) were incubated under the same conditions in a shaking water bath (37°C). For isotopomer spectral analysis (ISA) of lathosterol, 1-^13C-acetate was added in an aqueous solution to a final concentration of 1 mM.
(§2) Cells were washed three times with ice cold PBS (pH 7.4) (once with 2 mg/ml BSA and twice with PBS alone). Epicoprostanol (1 µg in 50 µl of hexane) was added as internal standard to each sample. Sterols were extracted in hexane/isopropanol (3:2 v/v; two times with 4 ml). After drying under nitrogen and alkaline hydrolysis (1 N NaOH in 80% ethanol, 1.5 h at 70°C), the sterols were extracted with cyclohexane (two times with 3 ml). After drying under nitrogen, sterols were converted to their trimethylsilyl (TMS) derivatives by adding 100 µl bis(trimethylsilyl)trifluoracetamide (Pierce)/n-decane (1:1; v/v) and heating for 1 h at 70°C in a conical glass tube. This solution (1-2 µl) was used for gas-chromatography/mass-spectrometry (GC/MS). Rat testes (0.05-0.15 g) were homogenized manually, and lipids were extracted in hexane/isopropanol (3:2 v/v; two times with 4 ml). The extracts were deproteinized with acetone (3 ml) and processed as described above. The observed sterol levels in testis were normalized to correspond to 0.1 g of tissue (wet weight).
(§3) Analyses were performed on a Hewlett-Packard GC/MS system (5890 series II GC interfaced to a 5971 mass selective detector) equipped with a DB-XLB column (30 m x 0.25 mm i.d. x 0.25 µm film; J&W). Gas-chromatography was done in the splitless mode with temperature programming as follows: 150°C for 1 min, followed by 20°C/min up to 260°C and 10°C/min up to 280°C (hold for 15 min). Mass spectral data were collected either in the full-scan mode (m/z 50-550) or by selective ion monitoring (SIM). For SIM analyses the electron multiplier voltage was raised by 300 V after the elution of lathosterol to increase the sensitivity of detection for lanosterol, dihydrolanosterol, methylsterols, dimethylsterols and plant sterols. The internal standard epicoprostanol was monitored at m/z 370. In unlabeled experiments, cholesterol precursors and plant sterols were monitored by the following ions: desmosterol (m/z 456; 441 and 351); Δ8-cholestenol (m/z 458); lathosterol (m/z 458); monounsaturated methylsterols (m/z 472); diunsaturated methylsterols (m/z 470); monounsaturated dimethylsterols (m/z 486); diunsaturated dimethylsterols (m/z 484); triunsaturated dimethylsterols (m/z 482); lanosterol (m/z 498 and 393) and dihydrolanosterol (m/z 500 and 395). Peak integration was performed manually, and sterols were quantified from SIM analyses against the internal standard. Unless stated otherwise, MAS amounts are given as a percentage of the control. When 1-^13C-acetate was used in the culture medium for ISA, up to 10 ions (M+0- M+10) were monitored for the TMS derivatives of lathosterol (m/z 458-468), T-MAS (m/z 484-494) and FF-MAS (m/z 482-492).

HepG2 cells [1] = assay: Isotopomer spectral analysis (ISA) of flux of 13C-acetate to lathosterol and cholesterol; format: cell-based, Human; conditions: 10 µM, 12 h, 1 mM 1-13C-acetate
Procedure: as §1, §3
ISA was carried out as described previously (25) by incubating cells with 1-13C-acetate. The isotopomer distribution in sterols synthesized from 1-^13C-acetate provided the fractional synthesis rate g(t) of the product and the enrichment D of the labeled precursor pool. These parameters were calculated by nonlinear regression analysis as described previously (25,26). Because here we used the molecular ions containing the TMS group for the ISA calculations, the ISA program was modified to correct for the additional C, H and Si atoms from the derivatization reagent. Statistical differences were assessed by Student's t-test and considered significant for P<0.05.

HepG2 cells [2] = assay: Accumulation of cholesterol precursors / C29-sterols (MAS) in HepG2 cells, GC/MS (SIM); format: cell-based, Human; conditions: HepG2 cells; for Increases in FF-MAS / Increases in T-MAS: 1 µM, refers to Table 1; for Dienol (m/z 486) / Enol T-MAS (m/z 484) / Trienol FF-MAS (m/z 482): ± SD; for suppression of the Δ24 reduction step (accumulation of desmosterol): absence of miconazole, 10 µM potent inhibitors or 1 µM tamoxifen for 12 h
Procedure: as §1, §2
Gas-chromatography was done in the splitless mode with temperature programming as follows: 150°C for 1 min, followed by 20°C/min up to 260°C and 10°C/min up to 280°C (hold for 15 min). Mass spectral data were collected either in the full-scan mode (m/z 50-550) or by selective ion monitoring (SIM). For SIM analyses the electron multiplier voltage was raised by 300 V after the elution of lathosterol to increase the sensitivity of detection for lanosterol, dihydrolanosterol, methylsterols, dimethylsterols and plant sterols. The internal standard epicoprostanol was monitored at m/z 370. […] Peak integration was performed manually, and sterols were quantified from SIM analyses against the internal standard. Unless stated otherwise, MAS amounts are given as a percentage of the control.

[3] = Conc. 10 µM (combination 10 + 10 µM)
[4] = Conc. 1 µM (combinations 1 + 1 µM), 24 h, n=3
[5] = Conc. 10 µM (combinations 10 + 10 µM), 12 h, n=2
[6] = 12-h incubation with 10 µM, n=3 incubations

SMILES: CC(=O)[C@@]1(O)CC[C@H]2[C@@H]3CCC4=CC(=O)CC[C@]4(C)[C@H]3CC[C@@]21C [17α-OH-Progesterone, 17α-Hydroxy-progesterone]
- order of suppression of Δ24 reduction (Δ24-reductase): pregnenolone > progesterone > 17α-OH-pregnenolone >> 17α-OH-progesterone
- Dienol (m/z 486) (rat testis; [3]): 199 ± 19 % of control
- Enol T-MAS (m/z 484) (rat testis; [3]): 201 ± 26 % of control
- Trienol FF-MAS (m/z 482) (rat testis; [3]): 171 ± 8 % of control
- Dienol (m/z 486) (rat testis; Conc. 20 µM): 223 ± 25 % of control
- Enol T-MAS (m/z 484) (rat testis; Conc. 20 µM): 225 ± 22 % of control
- Trienol FF-MAS (m/z 482) (rat testis; Conc. 20 µM): 240 ± 40 % of control
- lowering of the total amount of lathosterol (HepG2 cells [1]): ca. 50%
- reduction of de novo lathosterol synthesis (HepG2 cells [1]): more than 60%
- Increases in FF-MAS (HepG2 cells [2]): 4 fold
- Increases in T-MAS (HepG2 cells [2]): 9 fold
- Dienol (m/z 486) (HepG2 cells [2]; [4]): 246 ± 26 % of control
- Enol T-MAS (m/z 484) (HepG2 cells [2]; [4]): 162 ± 15 % of control
- Trienol FF-MAS (m/z 482) (HepG2 cells [2]; [4]): 120 ± 14 % of control
- Dienol (m/z 486) (HepG2 cells [2]; [5]): 2384 ± 236 % of control
- Enol T-MAS (m/z 484) (HepG2 cells [2]; [5]): 2003 ± 201 % of control
- Trienol FF-MAS (m/z 482) (HepG2 cells [2]; [5]): 406 ± 52 % of control
- suppression of the Δ24 reduction step (accumulation of desmosterol) (HepG2 cells [2]): not

SMILES: CC(=O)[C@H]1CC[C@H]2[C@@H]3CCC4=CC(=O)CC[C@]4(C)[C@H]3CC[C@]12C [Progesterone]
- order of suppression of Δ24 reduction (Δ24-reductase): pregnenolone > progesterone > 17α-OH-pregnenolone >> 17α-OH-progesterone
- Dienol (m/z 486) (rat testis; [3]): 109 ± 1 % of control
- Enol T-MAS (m/z 484) (rat testis; [3]): 107 ± 1 % of control
- Trienol FF-MAS (m/z 482) (rat testis; [3]): 336 ± 12 % of control
- Dienol (m/z 486) (rat testis; Conc. 20 µM): 103 ± 14 % of control
- Enol T-MAS (m/z 484) (rat testis; Conc. 20 µM): 129 ± 10 % of control
- Trienol FF-MAS (m/z 482) (rat testis; Conc. 20 µM): 487 ± 37 % of control
- lowering of the total amount of lathosterol (HepG2 cells [1]): ca. 50%
- reduction of de novo lathosterol synthesis (HepG2 cells [1]): more than 60%
- Increases in FF-MAS (HepG2 cells [2]): 4 fold
- Increases in T-MAS (HepG2 cells [2]): 9 fold
- desmosterol as share of the cholesterol content of the cells (HepG2 cells [2]; 12-h incubation with 10 µM): 2.1%
- cholesterol (HepG2 cells [2]; [6]): 269 ± 3 µg
- desmosterol (HepG2 cells [2]; [6]): 5.7 ± 0.07 µg
- Dienol (m/z 486) (HepG2 cells [2]; [4]): 77 ± 9 % of control
- Enol T-MAS (m/z 484) (HepG2 cells [2]; [4]): 192 ± 41 % of control
- Dienol (m/z 486) (HepG2 cells [2]; [5]): 26 ± 3 % of control
- Enol T-MAS (m/z 484) (HepG2 cells [2]; [5]): 1000 ± 106 % of control
- Trienol FF-MAS (m/z 482) (HepG2 cells [2]; [5]): 3335 ± 397 % of control
- suppression of the Δ24 reduction step (accumulation of desmosterol) (HepG2 cells [2]): strongly suppressed
